Measured values: PMC11648822, “Lactam Truncation Yields a Dihydroquinazolinone Scaffold with Potent Antimalarial Activity that Targets PfATP4” (Chemmedchem, 2024)

What was measured:
[1] = target: T1, PfATP4 (membranes prepared from 3D7 parasites) (Plasmodium falciparum, UniProt A0A143ZZK9); assay: PfATP4 Na+ assay (membrane ATPase), 3D7 membranes; assay type: biochemical, P. falciparum; conditions: for effect on membrane ATPase activity (PfATP4): 2 μM, high-[Na+] (152 mM), cipargamin not present
T1 construct: The membranes were prepared from isolated trophozoite‐stage 3D7 parasites; endogenous in cells; host or cells: P. falciparum 3D7 trophozoites (membrane preparation)
Description: Figure 4 Dihydroquinazolinone analogs 14 and 36 (WJM062) inhibit Na^+‐ATPase activity in membranes prepared from isolated P. falciparum parasites, consistent with them being PfATP4 inhibitors. (A) The effects of dihydroquinazolinone compounds (2 μM), dihydroartemisinin (DHA; 50 nM; negative control) and 0.2 % v/v DMSO (solvent‐only control) on membrane ATPase activity under high‐[Na^+] conditions (152 mM Na^+) and low‐[Na^+] conditions (2 mM Na^+; stemming from the addition of 1 mM Na2ATP) in the presence and absence of the PfATP4 inhibitor cipargamin (50 nM). The membranes were prepared from isolated trophozoite‐stage 3D7 parasites. The Pi produced is expressed as a percentage of that measured in the 152 mM Na^+ Control. The data are from four independent experiments performed with different membrane preparations; the symbols show the data from individual experiments and the bars show the mean (+SEM). In individual experiments, the Pi produced in the 152 mM Na^+ Control varied from 66 to 96 nmol per mg (total) protein per min. A repeated measures ANOVA with a post hoc Tukey test was used to compare the (pre‐normalised) data for different compounds and conditions. For comparisons between different conditions for the same test compound (or for the Control), significant differences are shown with black asterisks. For comparisons between the Control and a compound under the same test condition, significant differences are shown with coloured asterisks (in this case, grey asterisks, as the only significant differences were between the control and the dihydroquinazolinone compounds in the 152 mM Na^+ condition). ***P<0.001. (B) Concentration‐dependence of the effects of dihydroquinazolinone compounds on PfATP4‐associated ATPase activity in membranes prepared from 3D7 parasites. The data are the mean (shown + or − SEM) obtained from four independent experiments performed with different membrane preparations, with the exception of the lowest and second‐lowest concentrations of the compounds, for which data are from two and three independent experiments, respectively. (C and D) Potency of dihydroquinazolinone compounds against PfATP4‐associated ATPase activity in membranes prepared from Dd2‐Polδ‐PfATP4^G358S parasites (open triangles) and their Dd2‐Polδ parents (closed triangles). The data are the mean (shown + or − SEM) from four (C) or three (D) independent experiments. In B−D, the Pi production measured in the low‐[Na^+] (2 mM) condition was subtracted from that measured in high‐[Na^+] (152 mM) in the presence of each of the different concentrations of dihydroquinazolinone compounds to calculate the PfATP4‐associated ATPase activity. The PfATP4‐associated ATPase activity is expressed as a percentage of that obtained for the high‐[Na^+] (152 mM) Control.
Membrane ATPase assays were performed using a PiColorLock Gold Phosphate Detection System (Innova Biosciences), essentially as described previously.[25] Membranes were prepared either from isolated 3D7 trophozoites or from isolated Dd2‐Polδ‐PfATP4^G358S [22] and Dd2‐Polδ trophozoites.[26]

Dd2‐PfATP4^G358S = target: T2, Dd2‐PfATP4^G358S (Plasmodium falciparum, UniProt A0A143ZZK9, G1128R/G358S); assay: PfATP4 Na+ assay (membrane ATPase), Dd2-Polδ-PfATP4^G358S membranes; assay type: biochemical, P. falciparum; conditions: membranes from Dd2-Polδ-PfATP4^G358S parasites
T2 construct: We prepared membranes from Dd2‐Polδ‐PfATP4^G358S parasites (generated previously[22]); endogenous in cells; host or cells: P. falciparum Dd2-Polδ-PfATP4^G358S trophozoites (membrane preparation)
T2 sequence (A0A143ZZK9 1-1264 G358S/G1128R): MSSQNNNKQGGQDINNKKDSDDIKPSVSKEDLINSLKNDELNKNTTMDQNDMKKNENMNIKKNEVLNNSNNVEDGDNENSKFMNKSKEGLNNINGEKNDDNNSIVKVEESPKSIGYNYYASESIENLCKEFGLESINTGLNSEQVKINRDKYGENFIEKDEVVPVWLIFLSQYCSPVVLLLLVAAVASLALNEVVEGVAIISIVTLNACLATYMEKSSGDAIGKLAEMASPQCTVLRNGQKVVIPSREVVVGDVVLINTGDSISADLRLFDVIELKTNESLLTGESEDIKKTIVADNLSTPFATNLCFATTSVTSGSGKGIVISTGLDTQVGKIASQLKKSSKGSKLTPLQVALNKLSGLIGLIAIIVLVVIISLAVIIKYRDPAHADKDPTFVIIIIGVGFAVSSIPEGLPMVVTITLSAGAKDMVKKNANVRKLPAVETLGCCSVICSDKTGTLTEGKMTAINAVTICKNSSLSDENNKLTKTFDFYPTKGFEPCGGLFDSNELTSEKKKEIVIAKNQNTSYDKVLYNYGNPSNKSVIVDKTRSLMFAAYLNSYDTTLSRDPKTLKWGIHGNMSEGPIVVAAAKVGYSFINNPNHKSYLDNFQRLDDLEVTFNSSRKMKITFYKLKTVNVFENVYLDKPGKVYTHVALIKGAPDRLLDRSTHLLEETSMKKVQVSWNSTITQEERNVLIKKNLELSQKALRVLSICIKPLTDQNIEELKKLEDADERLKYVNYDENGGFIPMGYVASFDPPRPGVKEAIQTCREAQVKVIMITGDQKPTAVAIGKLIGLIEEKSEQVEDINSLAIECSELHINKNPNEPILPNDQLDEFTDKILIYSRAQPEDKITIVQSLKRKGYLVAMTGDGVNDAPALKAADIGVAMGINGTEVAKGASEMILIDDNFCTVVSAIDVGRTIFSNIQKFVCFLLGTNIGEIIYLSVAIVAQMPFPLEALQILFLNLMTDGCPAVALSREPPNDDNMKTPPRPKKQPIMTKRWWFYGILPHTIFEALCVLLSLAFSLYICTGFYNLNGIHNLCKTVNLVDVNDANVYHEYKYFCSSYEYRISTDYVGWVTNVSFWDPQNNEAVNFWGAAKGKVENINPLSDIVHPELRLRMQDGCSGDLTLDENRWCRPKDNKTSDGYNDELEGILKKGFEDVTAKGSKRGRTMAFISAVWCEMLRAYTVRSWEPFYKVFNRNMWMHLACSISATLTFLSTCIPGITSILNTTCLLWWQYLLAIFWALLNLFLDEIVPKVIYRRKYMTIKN
Description: Figure 4 Dihydroquinazolinone analogs 14 and 36 (WJM062) inhibit Na^+‐ATPase activity in membranes prepared from isolated P. falciparum parasites, consistent with them being PfATP4 inhibitors. (A) The effects of dihydroquinazolinone compounds (2 μM), dihydroartemisinin (DHA; 50 nM; negative control) and 0.2 % v/v DMSO (solvent‐only control) on membrane ATPase activity under high‐[Na^+] conditions (152 mM Na^+) and low‐[Na^+] conditions (2 mM Na^+; stemming from the addition of 1 mM Na2ATP) in the presence and absence of the PfATP4 inhibitor cipargamin (50 nM). The membranes were prepared from isolated trophozoite‐stage 3D7 parasites. The Pi produced is expressed as a percentage of that measured in the 152 mM Na^+ Control. The data are from four independent experiments performed with different membrane preparations; the symbols show the data from individual experiments and the bars show the mean (+SEM). In individual experiments, the Pi produced in the 152 mM Na^+ Control varied from 66 to 96 nmol per mg (total) protein per min. A repeated measures ANOVA with a post hoc Tukey test was used to compare the (pre‐normalised) data for different compounds and conditions. […] In B−D, the Pi production measured in the low‐[Na^+] (2 mM) condition was subtracted from that measured in high‐[Na^+] […] The PfATP4‐associated ATPase activity is expressed as a percentage of that obtained for the high‐[Na^+] […]

T1 sequence (A0A143ZZK9 whole entry): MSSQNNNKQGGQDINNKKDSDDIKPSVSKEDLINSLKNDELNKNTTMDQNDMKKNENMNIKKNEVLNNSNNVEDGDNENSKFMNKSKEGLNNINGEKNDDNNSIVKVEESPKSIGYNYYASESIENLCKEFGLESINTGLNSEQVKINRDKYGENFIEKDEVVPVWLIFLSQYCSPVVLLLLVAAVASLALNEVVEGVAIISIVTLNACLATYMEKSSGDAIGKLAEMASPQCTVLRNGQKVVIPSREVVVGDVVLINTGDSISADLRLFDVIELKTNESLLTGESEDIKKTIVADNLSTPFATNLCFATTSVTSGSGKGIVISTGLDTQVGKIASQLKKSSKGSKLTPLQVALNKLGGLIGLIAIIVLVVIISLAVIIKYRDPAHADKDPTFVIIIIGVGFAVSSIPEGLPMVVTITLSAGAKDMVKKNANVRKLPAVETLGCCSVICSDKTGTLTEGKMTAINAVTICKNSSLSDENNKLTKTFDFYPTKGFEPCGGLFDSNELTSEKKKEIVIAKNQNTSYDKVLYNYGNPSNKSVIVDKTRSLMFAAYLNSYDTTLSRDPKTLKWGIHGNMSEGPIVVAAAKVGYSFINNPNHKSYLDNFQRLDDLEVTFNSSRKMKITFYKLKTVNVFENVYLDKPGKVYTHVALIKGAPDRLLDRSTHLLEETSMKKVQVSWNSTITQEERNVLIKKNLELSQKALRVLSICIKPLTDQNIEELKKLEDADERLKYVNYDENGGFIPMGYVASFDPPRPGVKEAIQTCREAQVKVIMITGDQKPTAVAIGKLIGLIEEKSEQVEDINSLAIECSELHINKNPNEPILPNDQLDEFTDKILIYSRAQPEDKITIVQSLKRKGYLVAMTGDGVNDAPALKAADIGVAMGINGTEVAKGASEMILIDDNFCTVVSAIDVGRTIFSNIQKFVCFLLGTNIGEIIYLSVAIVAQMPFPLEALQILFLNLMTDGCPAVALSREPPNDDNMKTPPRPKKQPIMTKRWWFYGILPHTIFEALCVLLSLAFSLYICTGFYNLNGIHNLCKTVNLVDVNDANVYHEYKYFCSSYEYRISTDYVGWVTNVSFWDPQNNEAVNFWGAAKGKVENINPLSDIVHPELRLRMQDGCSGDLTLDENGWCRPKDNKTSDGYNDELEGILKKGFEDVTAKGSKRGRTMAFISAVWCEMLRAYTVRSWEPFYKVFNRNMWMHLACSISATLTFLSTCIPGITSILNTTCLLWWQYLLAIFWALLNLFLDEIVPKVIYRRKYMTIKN

COc1cc(F)c2c(c1)NC(C)(C(=O)Nc1cncc(Cl)c1)N(C)C2=O (stereo not drawn) [Compound 36, N‐(5‐Chloropyridin‐3‐yl)‐5‐fluoro‐7‐methoxy‐2,3‐dimethyl‐4‐oxo‐1,2,3,4‐tetrahydroquinazoline‐2‐carboxamide]
EC50 [1]: 8.6 nM
effect on membrane ATPase activity (PfATP4) [1]: complete inhibition
EC50 (Dd2‐PfATP4^G358S): 11.6 nM

CN1C(=O)c2ccc(Cl)cc2NC1(C)C(=O)Nc1cncc(Cl)c1 (stereo not drawn) [Compound 14, 7‐Chloro‐N‐(5‐chloro‐3‐pyridyl)‐2,3‐dimethyl‐4‐oxo‐1H‐quinazoline‐2‐carboxamide]
EC50 [1]: 7.2 nM
effect on membrane ATPase activity (PfATP4) [1]: complete inhibition
EC50 (Dd2‐PfATP4^G358S): 12.1 nM
